Measurements from ChEMBL document CHEMBL1134687, “Synthesis and structure-activity relationships of naphthamides as dopamine D3 receptor ligands” (J Med Chem, 2001).

Key:
D(2) dopamine receptor = D(2) dopamine receptor (Rattus norvegicus, UniProt P61169); experiment: Binding affinity for dopamine receptor D2 long expressed in Sf9 cells using [125I]IABN radioligand.
D(3) dopamine receptor = D(3) dopamine receptor (Rattus norvegicus, UniProt P19020); experiment: biochemical
Description: Binding affinity for dopamine receptor D3 expressed in Sf9 cells using [125I]IABN the radioligand.

Sigma 2 receptor [1] = biological target: Sigma 2 receptor; design: species or system Rattus norvegicus, Liver, Membrane
Sigma 2 receptor [2] = experiment: Binding affinity for sigma-2 receptor measured on rat liver membranes using [3H]DTG as radioligand in the presence of (+)-pentazocine; design: species or system Membrane

D(3) dopamine receptor, sequence (P19020 whole entry): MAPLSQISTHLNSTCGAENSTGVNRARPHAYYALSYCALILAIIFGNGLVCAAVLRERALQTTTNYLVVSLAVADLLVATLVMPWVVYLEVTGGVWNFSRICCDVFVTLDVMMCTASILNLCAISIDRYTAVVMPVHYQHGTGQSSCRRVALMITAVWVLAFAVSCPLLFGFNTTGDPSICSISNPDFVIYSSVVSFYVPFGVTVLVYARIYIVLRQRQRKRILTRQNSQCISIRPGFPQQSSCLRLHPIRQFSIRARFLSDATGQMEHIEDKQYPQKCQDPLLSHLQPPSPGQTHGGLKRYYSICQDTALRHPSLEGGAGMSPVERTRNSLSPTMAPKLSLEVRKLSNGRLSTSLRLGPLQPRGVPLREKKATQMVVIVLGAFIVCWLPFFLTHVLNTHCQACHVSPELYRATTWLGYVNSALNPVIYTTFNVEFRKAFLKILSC
D(2) dopamine receptor, sequence (P61169 whole entry): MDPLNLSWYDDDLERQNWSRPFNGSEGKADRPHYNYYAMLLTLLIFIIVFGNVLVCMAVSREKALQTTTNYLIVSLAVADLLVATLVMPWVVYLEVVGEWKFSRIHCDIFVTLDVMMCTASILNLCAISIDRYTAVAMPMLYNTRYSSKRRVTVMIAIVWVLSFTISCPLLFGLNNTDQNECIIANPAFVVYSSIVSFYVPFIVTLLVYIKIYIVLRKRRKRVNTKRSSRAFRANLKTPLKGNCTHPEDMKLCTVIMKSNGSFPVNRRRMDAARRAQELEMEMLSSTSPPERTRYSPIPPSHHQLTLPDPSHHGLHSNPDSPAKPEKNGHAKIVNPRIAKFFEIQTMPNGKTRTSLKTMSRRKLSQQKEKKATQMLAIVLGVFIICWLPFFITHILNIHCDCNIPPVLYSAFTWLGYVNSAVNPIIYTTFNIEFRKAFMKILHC

Row | SMILES | Ki (D(2) dopamine receptor) [nM] | Ki (D(3) dopamine receptor) [nM] | Ki (Sigma 2 receptor [1]) [nM] | Ki (Sigma 2 receptor [2]) [nM]
1 | COc1c(C(=O)N[C@@H]2CCN(C3C4CCCC3CCC4)C2)cc(Br)c2ccccc12 (stereo partly drawn) | 75 | 13.2 | 279 | 
2 | COc1c(C(=O)NC[C@H]2CCCN2C2[C@H]3C[C@@H]4C[C@@H](C[C@H]2C4)C3)cc(Br)c2ccccc12 (stereo partly drawn) |  | 2.6 | 317 | 
3 | COc1c(C(=O)N[C@H]2CCN(C3C4CCCC3CCC4)C2)cc(Br)c2ccccc12 (stereo partly drawn) | 132 | 12 | 137 | 
4 | COc1c(C(=O)NC2CCN(C3CCCCC3)CC2)cc(Br)c2ccccc12 | 94 | 430 | 2.1 | 
5 | COc1c(C(=O)N[C@H]2CCN(C3[C@H]4C[C@@H]5C[C@@H](C[C@H]3C5)C4)C2)cc(Br)c2ccccc12 (stereo partly drawn) |  | 0.4 | 70 | 
6 | COc1c(C(=O)NC[C@@H]2CCCN2C2CCCCC2)cc(Br)c2ccccc12 | 442 | 334 | 147 | 
7 | COc1c(C(=O)NC[C@H]2CCCN2C2CCCCC2)cc(Br)c2ccccc12 | 58 | 3.2 | 25 | 
8 | COc1c(C(=O)NC2CCN(C3CCCCCC3)CC2)cc(Br)c2ccccc12 | 23 | 58 | 2.6 | 
9 | COc1c(C(=O)NC[C@H]2CCCN2Cc2ccccc2)cc(Br)c2ccccc12 | 11.4 | 1.4 | 207 | 
10 | COc1c(C(=O)NC[C@@H]2CCCN2C2[C@H]3C[C@@H]4C[C@@H](C[C@H]2C4)C3)cc(Br)c2ccccc12 (stereo partly drawn) |  | 68 | 141 | 
11 | COc1c(C(=O)N[C@@H]2CCN(C3CCCCCC3)C2)cc(Br)c2ccccc12 | 19 | 2.9 | 10 | 
12 | COc1c(C(=O)NC[C@@H]2CCCN2Cc2ccccc2)cc(Br)c2ccccc12 | 151 | 14.6 | 222 | 
13 | COc1c(C(=O)N[C@@H]2CCN(C3CCCCC3)C2)cc(Br)c2ccccc12 | 74 | 5.7 | 9.8 | 
14 | COc1c(C(=O)NC2CCN(C3CCCC3)CC2)cc(Br)c2ccccc12 | 210 | 899 | 6.8 | 
15 | COc1c(C(=O)NC[C@@H]2CCCN2C2CCCC2)cc(Br)c2ccccc12 | 59 |  | 51 | 
16 | COc1c(C(=O)N[C@H]2CCN(C3CCCCCC3)C2)cc(Br)c2ccccc12 | 1.8 | 0.2 |  | 
17 | COc1c(C(=O)N[C@H]2CCN(C3CCCCC3)C2)cc(Br)c2ccccc12 |  | 0.8 | 25 | 
18 | COc1cc(I)cc(C(=O)NC2CC3CCCC(C2)N3Cc2ccccc2)c1OC (stereo not drawn) | 0.05 | 0.04 | 419 | 

Results, then the compound that gave them:

Row | Ki (D(2) dopamine receptor) [nM] | Ki (D(3) dopamine receptor) [nM] | Ki (Sigma 2 receptor [1]) [nM] | Ki (Sigma 2 receptor [2]) [nM] | SMILES
19 | 11.8 |  |  |  | COc1c(C(=O)NC[C@@H]2CCCN2C2CCC2)cc(Br)c2ccccc12
20 | 152 | 41 | 7.9 |  | COc1c(C(=O)NC2CC3CCCC(C2)N3C2CCCCCC2)cc(Br)c2ccccc12 (stereo not drawn)
21 | 12 | 1.6 | 20.8 |  | COc1c(C(=O)N[C@@H]2CCN(Cc3ccccc3)C2)cc(Br)c2ccccc12
22 |  | 50 |  |  | COc1c(C(=O)NC[C@@H]2CCCN2C2CCCCCC2)cc(Br)c2ccccc12
23 | 157 |  | 35 |  | COc1c(C(=O)NC[C@H]2CCCN2C2CCCC2)cc(Br)c2ccccc12
24 | 150 | 48 | 4.8 |  | COc1c(C(=O)NC2CC3CCCC(C2)N3C2CCCCC2)cc(Br)c2ccccc12 (stereo not drawn)
25 | 96 | 92 | 55 |  | COc1c(C(=O)NC2CCN(C3[C@H]4C[C@@H]5C[C@@H](C[C@H]3C5)C4)CC2)cc(Br)c2ccccc12 (stereo partly drawn)
26 | 9.7 | 1 | 42 |  | COc1c(C(=O)N[C@H]2CCN(Cc3ccccc3)C2)cc(Br)c2ccccc12
27 | 277 |  |  |  | COc1c(C(=O)NC[C@H]2CCCN2C2CCC2)cc(Br)c2ccccc12
28 |  | 13 | 21.4 |  | COc1c(C(=O)N[C@@H]2CCN(C3[C@H]4C[C@@H]5C[C@@H](C[C@H]3C5)C4)C2)cc(Br)c2ccccc12 (stereo partly drawn)
29 |  | 1.1 |  | 35 | COc1c(C(=O)NC2CCN(Cc3ccccc3)CC2)cc(Br)c2ccccc12
30 |  | 2.4 |  |  | COc1c(C(=O)NC[C@H]2CCCN2C2CCCCCC2)cc(Br)c2ccccc12
31 | 0.2 | 0.04 | 250 |  | COc1c(C(=O)NC2CC3CCCC(C2)N3Cc2ccccc2)cc(Br)c2ccccc12 (stereo not drawn)
32 | 771 | 1430 | 2.4 |  | COc1c(C(=O)NC2CCN(C3C4CCCC3CCC4)CC2)cc(Br)c2ccccc12 (stereo not drawn)
33 | 19 | 2.5 | 27 |  | COc1c(C(=O)N[C@H]2CCN(C3CCCC3)C2)cc(Br)c2ccccc12
34 | 283 | 75 | 15.3 |  | COc1c(C(=O)N[C@@H]2CCN(C3CCCC3)C2)cc(Br)c2ccccc12
35 | 26 | 7.5 | 267 |  | COc1c(C(=O)NC[C@@H]2CCCN2C2C3CCCC2CCC3)cc(Br)c2ccccc12 (stereo partly drawn)
